Results on two molecules are retold here after ChEMBL document CHEMBL3632570, “Structure-Guided Design of Novel l-Cysteine Derivatives as Potent KSP Inhibitors” (ACS Med Chem Lett, 2015).

The source made the active and inactive calls. The rule behind the calls is not given here.

In series [1] the target is T1, Kinesin-like protein KIF22 (Homo sapiens) (UniProt Q14807).
T1 sequence (whole entry): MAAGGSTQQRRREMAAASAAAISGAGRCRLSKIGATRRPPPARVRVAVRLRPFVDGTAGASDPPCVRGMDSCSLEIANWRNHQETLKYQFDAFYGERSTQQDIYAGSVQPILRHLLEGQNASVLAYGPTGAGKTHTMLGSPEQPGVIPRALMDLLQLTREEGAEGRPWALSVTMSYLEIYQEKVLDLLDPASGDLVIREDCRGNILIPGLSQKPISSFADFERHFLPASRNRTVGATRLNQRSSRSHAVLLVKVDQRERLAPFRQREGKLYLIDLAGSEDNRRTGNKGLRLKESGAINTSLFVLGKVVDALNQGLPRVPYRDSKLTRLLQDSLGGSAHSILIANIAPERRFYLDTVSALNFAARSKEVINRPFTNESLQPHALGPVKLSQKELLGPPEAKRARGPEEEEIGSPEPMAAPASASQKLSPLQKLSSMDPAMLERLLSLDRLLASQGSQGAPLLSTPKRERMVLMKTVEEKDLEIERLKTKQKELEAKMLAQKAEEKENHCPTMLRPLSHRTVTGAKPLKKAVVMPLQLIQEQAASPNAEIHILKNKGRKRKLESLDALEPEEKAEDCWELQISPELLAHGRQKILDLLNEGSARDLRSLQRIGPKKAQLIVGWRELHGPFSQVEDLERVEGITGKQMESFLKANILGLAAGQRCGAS
The experiment in a line: Inhibition of microtubule-stimulated Kid motor domain (1 to 336) (unknown origin) ATPase activity at 6.3 uM.

In series [2] the target is T2, Chromosome-associated kinesin KIF4A (Homo sapiens) (UniProt O95239).
T2 sequence (whole entry): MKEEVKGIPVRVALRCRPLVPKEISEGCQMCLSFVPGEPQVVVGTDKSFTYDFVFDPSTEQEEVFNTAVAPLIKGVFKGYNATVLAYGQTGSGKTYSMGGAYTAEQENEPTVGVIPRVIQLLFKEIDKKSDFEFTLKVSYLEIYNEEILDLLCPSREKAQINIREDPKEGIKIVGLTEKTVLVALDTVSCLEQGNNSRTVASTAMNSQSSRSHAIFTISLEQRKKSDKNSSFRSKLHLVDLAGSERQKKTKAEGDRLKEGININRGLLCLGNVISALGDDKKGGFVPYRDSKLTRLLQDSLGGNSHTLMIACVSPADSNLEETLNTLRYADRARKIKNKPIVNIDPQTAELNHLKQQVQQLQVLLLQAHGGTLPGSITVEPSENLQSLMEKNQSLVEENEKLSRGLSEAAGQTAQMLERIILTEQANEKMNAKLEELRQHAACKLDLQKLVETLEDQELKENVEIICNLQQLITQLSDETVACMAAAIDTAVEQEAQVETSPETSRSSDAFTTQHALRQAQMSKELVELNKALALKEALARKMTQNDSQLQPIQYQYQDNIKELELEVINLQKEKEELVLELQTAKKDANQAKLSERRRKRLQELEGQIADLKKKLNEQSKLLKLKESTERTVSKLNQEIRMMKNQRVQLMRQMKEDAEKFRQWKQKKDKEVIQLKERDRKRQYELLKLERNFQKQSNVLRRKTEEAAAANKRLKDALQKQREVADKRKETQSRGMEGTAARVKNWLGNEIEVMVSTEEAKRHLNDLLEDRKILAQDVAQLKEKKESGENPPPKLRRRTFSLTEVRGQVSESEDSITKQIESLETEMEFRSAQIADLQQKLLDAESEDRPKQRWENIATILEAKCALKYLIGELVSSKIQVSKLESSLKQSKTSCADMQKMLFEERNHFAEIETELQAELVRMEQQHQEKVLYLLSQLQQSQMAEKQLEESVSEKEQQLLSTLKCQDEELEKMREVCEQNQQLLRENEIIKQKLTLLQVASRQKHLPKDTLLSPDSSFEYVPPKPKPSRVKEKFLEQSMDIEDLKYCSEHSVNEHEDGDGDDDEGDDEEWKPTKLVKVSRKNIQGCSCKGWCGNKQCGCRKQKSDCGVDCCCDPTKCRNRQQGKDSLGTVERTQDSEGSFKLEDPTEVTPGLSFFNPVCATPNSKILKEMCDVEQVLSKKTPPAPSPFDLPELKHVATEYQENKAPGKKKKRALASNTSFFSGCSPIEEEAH
The experiment in a line: Inhibition of microtubule-stimulated KIF4A motor domain (1 to 346) (unknown origin) ATPase activity at 6.3 uM.

Series [3] concerns the target Centromere-associated protein E (Homo sapiens) (UniProt Q02224). In words: Inhibition of microtubule-stimulated CENP-E motor domain (1 to 339) (unknown origin) ATPase activity at 6.3 uM.
The target in series [4] is T3, Kinesin-like protein KIFC3 (Homo sapiens) (UniProt Q9BVG8).
T3 sequence (whole entry): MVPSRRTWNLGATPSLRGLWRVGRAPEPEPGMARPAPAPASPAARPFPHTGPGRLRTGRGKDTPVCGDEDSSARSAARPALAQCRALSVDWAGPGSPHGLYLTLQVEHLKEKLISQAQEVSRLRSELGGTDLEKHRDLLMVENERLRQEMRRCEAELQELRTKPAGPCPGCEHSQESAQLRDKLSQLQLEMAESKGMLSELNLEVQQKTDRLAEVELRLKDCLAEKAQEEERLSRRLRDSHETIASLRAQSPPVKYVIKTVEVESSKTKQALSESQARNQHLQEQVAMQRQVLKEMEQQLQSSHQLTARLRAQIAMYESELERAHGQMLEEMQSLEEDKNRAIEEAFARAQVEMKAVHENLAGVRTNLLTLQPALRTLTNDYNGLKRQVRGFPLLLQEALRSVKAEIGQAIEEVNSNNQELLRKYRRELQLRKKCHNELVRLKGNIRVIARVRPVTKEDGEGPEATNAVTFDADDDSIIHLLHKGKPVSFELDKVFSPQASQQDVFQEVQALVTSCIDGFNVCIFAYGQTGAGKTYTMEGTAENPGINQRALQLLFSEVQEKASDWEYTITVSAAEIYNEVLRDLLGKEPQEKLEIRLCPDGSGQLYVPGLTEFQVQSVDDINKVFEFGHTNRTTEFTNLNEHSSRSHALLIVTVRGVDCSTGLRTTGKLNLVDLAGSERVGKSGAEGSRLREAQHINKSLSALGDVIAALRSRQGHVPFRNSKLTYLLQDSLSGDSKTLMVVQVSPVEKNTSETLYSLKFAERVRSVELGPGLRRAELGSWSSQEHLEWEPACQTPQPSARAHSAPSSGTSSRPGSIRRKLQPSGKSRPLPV
In words: Inhibition of microtubule-stimulated KIFC3 motor domain (303 to 638) (unknown origin) ATPase activity at 6.3 uM.

Series [5] relates to Mus musculus. The experiment in a line: Toxicity in athymic nude BALB/cAJcL mouse xenografted with HCT116 cells assessed as mortality at 25 mg/kg, iv administered on days 1,3,5,8,10 and 12. The note with it: in vivo. Type of series: organism-based, HCT-116.
In series [6] the test system is Mus musculus. The experiment in a line: Toxicity in athymic nude BALB/cAJcL mouse xenografted with HCT116 cells assessed as body weight loss at 25 mg/kg, iv administered on days 1,3,5,8,10 and 12 relative to vehicle-treated control. Type of series: organism-based, HCT-116. The conditions noted are these: in vivo.

Chain of Centromere-associated protein E (Homo sapiens) (Q02224 whole entry, the tested form may be a part): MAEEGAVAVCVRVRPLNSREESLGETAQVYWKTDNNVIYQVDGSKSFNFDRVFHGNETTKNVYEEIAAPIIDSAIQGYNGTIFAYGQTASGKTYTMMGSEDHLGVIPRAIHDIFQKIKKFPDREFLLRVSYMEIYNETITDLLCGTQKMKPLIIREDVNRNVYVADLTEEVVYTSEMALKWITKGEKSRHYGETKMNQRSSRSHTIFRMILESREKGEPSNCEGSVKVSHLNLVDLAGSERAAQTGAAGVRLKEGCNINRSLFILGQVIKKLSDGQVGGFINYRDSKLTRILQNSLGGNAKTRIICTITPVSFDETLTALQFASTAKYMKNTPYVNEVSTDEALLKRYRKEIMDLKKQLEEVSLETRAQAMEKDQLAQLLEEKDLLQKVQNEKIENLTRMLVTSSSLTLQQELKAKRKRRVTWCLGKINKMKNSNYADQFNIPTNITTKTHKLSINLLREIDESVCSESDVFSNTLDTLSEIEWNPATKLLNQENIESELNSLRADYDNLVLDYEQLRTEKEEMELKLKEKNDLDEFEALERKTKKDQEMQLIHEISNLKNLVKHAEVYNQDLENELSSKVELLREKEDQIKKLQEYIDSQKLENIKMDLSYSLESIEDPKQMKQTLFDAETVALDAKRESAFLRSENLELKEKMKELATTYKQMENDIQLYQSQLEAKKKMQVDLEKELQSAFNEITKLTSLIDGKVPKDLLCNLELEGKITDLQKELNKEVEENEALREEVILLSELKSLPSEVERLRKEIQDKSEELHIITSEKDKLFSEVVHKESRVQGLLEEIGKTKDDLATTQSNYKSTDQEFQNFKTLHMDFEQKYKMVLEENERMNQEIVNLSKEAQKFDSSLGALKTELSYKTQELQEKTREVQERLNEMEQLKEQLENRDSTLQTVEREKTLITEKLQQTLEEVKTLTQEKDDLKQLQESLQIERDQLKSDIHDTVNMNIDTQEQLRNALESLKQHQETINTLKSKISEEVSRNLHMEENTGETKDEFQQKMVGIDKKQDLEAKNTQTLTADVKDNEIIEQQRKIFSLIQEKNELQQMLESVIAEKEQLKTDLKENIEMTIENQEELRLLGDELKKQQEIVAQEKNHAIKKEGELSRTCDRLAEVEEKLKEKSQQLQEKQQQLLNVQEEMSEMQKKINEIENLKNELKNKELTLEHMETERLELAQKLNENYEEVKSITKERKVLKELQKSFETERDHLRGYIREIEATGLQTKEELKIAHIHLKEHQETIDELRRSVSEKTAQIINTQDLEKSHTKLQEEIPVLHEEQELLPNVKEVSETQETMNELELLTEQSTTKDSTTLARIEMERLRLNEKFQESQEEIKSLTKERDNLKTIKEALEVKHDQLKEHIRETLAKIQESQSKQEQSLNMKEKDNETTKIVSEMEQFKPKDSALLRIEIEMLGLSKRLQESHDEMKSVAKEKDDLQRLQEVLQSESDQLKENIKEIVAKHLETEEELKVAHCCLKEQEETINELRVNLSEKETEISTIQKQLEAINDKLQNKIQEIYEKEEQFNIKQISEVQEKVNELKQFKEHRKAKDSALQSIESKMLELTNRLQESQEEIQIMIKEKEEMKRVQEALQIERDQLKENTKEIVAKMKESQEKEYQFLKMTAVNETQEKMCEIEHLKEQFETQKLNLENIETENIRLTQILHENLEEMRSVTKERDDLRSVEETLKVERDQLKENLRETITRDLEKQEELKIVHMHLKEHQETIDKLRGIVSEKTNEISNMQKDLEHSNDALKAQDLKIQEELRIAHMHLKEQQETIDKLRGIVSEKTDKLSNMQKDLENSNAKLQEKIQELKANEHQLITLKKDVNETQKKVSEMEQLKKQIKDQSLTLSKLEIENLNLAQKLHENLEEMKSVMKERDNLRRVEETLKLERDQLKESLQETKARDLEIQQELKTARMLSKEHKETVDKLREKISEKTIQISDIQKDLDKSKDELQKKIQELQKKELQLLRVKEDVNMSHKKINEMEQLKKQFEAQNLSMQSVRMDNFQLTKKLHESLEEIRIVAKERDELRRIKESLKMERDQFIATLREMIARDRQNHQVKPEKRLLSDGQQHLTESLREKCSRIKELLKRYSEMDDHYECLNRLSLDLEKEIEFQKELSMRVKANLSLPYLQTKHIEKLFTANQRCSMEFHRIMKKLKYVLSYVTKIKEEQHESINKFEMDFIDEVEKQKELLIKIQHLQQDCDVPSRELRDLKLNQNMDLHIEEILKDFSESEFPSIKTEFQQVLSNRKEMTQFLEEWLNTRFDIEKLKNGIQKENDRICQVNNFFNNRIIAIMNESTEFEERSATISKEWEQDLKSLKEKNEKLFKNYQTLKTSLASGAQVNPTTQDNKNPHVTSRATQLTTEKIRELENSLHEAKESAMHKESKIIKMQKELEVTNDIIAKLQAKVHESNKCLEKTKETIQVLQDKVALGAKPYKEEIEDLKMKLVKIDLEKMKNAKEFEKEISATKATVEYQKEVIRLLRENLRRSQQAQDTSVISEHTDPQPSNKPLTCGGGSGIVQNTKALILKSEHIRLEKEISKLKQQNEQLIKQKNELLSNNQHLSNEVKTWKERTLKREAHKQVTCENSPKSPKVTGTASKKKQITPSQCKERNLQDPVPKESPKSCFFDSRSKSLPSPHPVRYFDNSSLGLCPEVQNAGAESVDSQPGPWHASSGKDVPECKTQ

Take `COc1ccc(C2(SC[C@H](N)C(=O)O)c3ccccc3CCc3ccccc32)cc1`: the inhibition result in series [1], in series [2], in series [3] and in series [4] was “inactive” throughout. Further, the Activity result with Mus musculus [5] is on record as “Non-toxic”; with Mus musculus [6], “Toxic”.
For the molecule `N[C@@H](CSC1(c2ccc(C(F)(F)F)cc2)c2ccccc2CCc2ccccc21)C(=O)O`, the inhibition entry in series [1], in series [2], in series [3] and in series [4] was “inactive” each time. The Activity entry with Mus musculus [5] is “Non-toxic”; with Mus musculus [6], “Toxic”.
